Earlier results in patent US20150320746A1, “PHARMACEUTICAL FORMULATION COMPRISING 2,3-DIMETHYL-6-(N,N-DIMETHYLAMINOETHYL)-6H-INDOLO-(2,3-B)QUINOXALINE” (priority 2011, published 2015).

Tested on: HSV-1

In the case of `Nc1nc2c(ncn2COCCO)c(=O)[nH]1` [Acyclovir, acyclovir], the “selectivity ratio for the inhibitory activity against HSV-1 in vitro” value is listed as “about 2000”.
